From patent US11384083B2, “Substituted spiro[cyclopropane-1,5′-pyrrolo[2,3-d]pyrimidin]-6′(7′h)-ones as CDK2 inhibitors” (Incyte Corporation, priority 2019, dated 2022)
pIC50: −log10 of the molar value.

Biological target: CDK2/Cyclin E1 (Homo sapiens (Human), UniProt P24941)
Test: CDK2/Cyclin E1 HTRF enzyme activity assay
Assay type: biochemical
Conditions: 1 mM ATP
Method: Example A. CDK2/Cyclin E1 HTRF Enzyme Activity Assay
CDK2/Cyclin E1 enzyme activity assays utilized full-length human CDK2 co-expressed as N-terminal GST-tagged protein with FLAG-Cyclin E1 in a baculovirus expression system (Carna Product Number 04-165). Assays were conducted in white 384-well polystyrene plates in a final reaction volume of 8 μL. CDK2/Cyclin E1 (0.25 nM) was incubated with compounds (40 nL serially diluted in DMSO) in the presence of ATP (50 μM or 1 mM) and 50 nM ULight™-labeled eIF4E-binding protein 1 (THR37/46) peptide (PerkinElmer) in assay buffer (containing 50 mM HEPES pH 7.5, 1 mM EGTA, 10 mM MgCl2, 2 mM DTT, 0.05 mg/mL BSA, and 0.01% Tween 20) for 60 minutes at room temperature. The reactions were stopped by the addition of EDTA and Europium-labeled anti-phospho-4E-BP1 antibody (PerkinElmer), for a final concentration of 15 mM and 1.5 nM, respectively. HTRF signals were read after 1 hour at room temperature on a PHERAstar FS plate reader (BMG Labtech). Data were analyzed with IDBS XLFit and GraphPad Prism 5.0 software using a three or four parameter dose response curve to determine IC50 for each compound.

pIC50 | SMILES
≥ 7.30 | O=C1N(C2CCCC2)c2nc(NC3CCN(S(=O)(=O)C4CC4)CC3)ncc2C12CC2 [Example 3, 7′-Cyclopentyl-2′-((1-(cyclopropylsulfonyl)piperidin-4-yl)amino)spiro[cyclopropane-1,5′-pyrrolo[2,3-d]pyrimidin]-6′(7′H)-one]
≥ 7.30 | CCC(C(F)F)N1C(=O)C2(CC2)c2cnc(NC3CCN(S(C)(=O)=O)CC3)nc21 (racemic) [Example 10, 7′-(1,1-difluorobutan-2-yl)-2′-((1-(methylsulfonyl)piperidin-4-yl)amino)spiro[cyclopropane-1,5′-pyrrolo[2,3-d]pyrimidin]-6′(7′H)-one]
≥ 7.30 | C[C@@]1(O)CCC[C@H]1N1C(=O)C2(CC2)c2cnc(NC3CCN(S(=O)(=O)c4ncc[nH]4)CC3)nc21 (relative stereo) [Example 17, 2′-((1-((1H-imidazol-2-yl)sulfonyl)piperidin-4-yl)amino)-7′-((trans)-2-hydroxy-2-methylcyclopentyl)spiro[cyclopropane-1,5′-pyrrolo[2,3-d]pyrimidin]-6′(7′H)-one]
≥ 7.30 | O=C1N(C2CCCC2)c2nc(NC3CCN(S(=O)(=O)c4cccnc4)CC3)ncc2C12CC2 [Example 5, 7′-Cyclopentyl-2′-((1-(pyridin-3-ylsulfonyl)piperidin-4-yl)amino)spiro[cyclopropane-1,5′-pyrrolo[2,3-d]pyrimidin]-6′(7′H)-one]
≥ 7.30 | CCn1cnc(S(=O)(=O)N2CCC(Nc3ncc4c(n3)N(c3cc(F)ccc3Cl)C(=O)C43CC3)CC2)c1 [Example 19, 7′-(2-chloro-5-fluorophenyl)-2′-((1-((1-ethyl-1H-imidazol-4-yl)sulfonyl)piperidin-4-yl)amino)spiro[cyclopropane-1,5′-pyrrolo[2,3-d]pyrimidin]-6′(7′H)-one]
≥ 7.30 | C[C@@H](C1CC1)N1C(=O)C2(CC2)c2cnc(NC3CCN(S(=O)(=O)c4ccc(=O)[nH]c4)CC3)nc21 [Example 15, (S)-7′-(1-cyclopropylethyl)-2′-((1-((6-oxo-1,6-dihydropyridin-3-yl)sulfonyl)piperidin-4-yl)amino)spiro[cyclopropane-1,5′-pyrrolo[2,3-d]pyrimidin]-6′(7′H)-one]
≥ 7.30 | CC1CCCC1N1C(=O)C2(CC2)c2cnc(NC3CCN(S(C)(=O)=O)CC3)nc21 (stereo not shown) [Example 8, 7′-(2-Methylcyclopentyl)-2′-((1-(methylsulfonyl)piperidin-4-yl)amino)spiro[cyclopropane-1,5′-pyrrolo[2,3-d]pyrimidin]-6′(7′H)-one]
≥ 7.30 | O=C1N([C@@H]2CCC[C@@H](O)C2)c2nc(NC3CCN(S(=O)(=O)c4cccc(N5CCC5)n4)CC3)ncc2C12CC2 [Example 13, 2′-((1-((6-(azetidin-1-yl)pyridin-2-yl)sulfonyl)piperidin-4-yl)amino)-7′-((1R,3R)-3-hydroxycyclohexyl)spiro[cyclopropane-1,5′-pyrrolo[2,3-d]pyrimidin]-6′(7′H)-one]
≥ 7.30 | O=C1N(c2cc3c(cc2Cl)CNCC3)c2nc(NC3CCN(S(=O)(=O)c4ncc[nH]4)CC3)ncc2C12CC2 [Example 18, 2′-((1-((1H-imidazol-2-yl)sulfonyl)piperidin-4-yl)amino)-7′-(7-chloro-1,2,3,4-tetrahydroisoquinolin-6-yl)spiro[cyclopropane-1,5′-pyrrolo[2,3-d]pyrimidin]-6′(7′H)-one]
≥ 7.30 | Cn1cc(S(=O)(=O)N2CCC(Nc3ncc4c(n3)N(C3CCCC3)C(=O)C43CC3)CC2)cn1 [Example 7, 7′-Cyclopentyl-2′-((1-((1-methyl-1H-pyrazol-4-yl)sulfonyl)piperidin-4-yl)amino)spiro[cyclopropane-1,5′-pyrrolo[2,3-d]pyrimidin]-6′(7′H)-one]
≥ 7.30 | CCN1CC(n2cc(S(=O)(=O)N3CCC(Nc4ncc5c(n4)N([C@@H](C)C4CC4)C(=O)C54CC4)CC3)cn2)C1 [Example 16, (S)-7′-(1-cyclopropylethyl)-2′-((1-((1-(1-ethylazetidin-3-yl)-1H-pyrazol-4-yl)sulfonyl)piperidin-4-yl)amino)spiro[cyclopropane-1,5′-pyrrolo[2,3-d]pyrimidin]-6′(7′H)-one]
≥ 7.30 | C[C@@H](C1CC1)N1C(=O)C2(CC2)c2cnc(NC3CCN(S(=O)(=O)c4ncc[nH]4)CC3)nc21 [Example 14, (S)-2′-((1-((1H-imidazol-2-yl)sulfonyl)piperidin-4-yl)amino)-7′-(1-cyclopropylethyl)spiro[cyclopropane-1,5′-pyrrolo[2,3-d]pyrimidin]-6′(7′H)-one]
≥ 7.30 | Cn1cc(S(=O)(=O)N2CCC(Nc3ncc4c(n3)N([C@@H]3CCC[C@@H](O)C3)C(=O)C43CC3)CC2)cn1 [Example 12, 7′-((1R,3R)-3-hydroxycyclohexyl)-2′-((1-((1-methyl-1H-pyrazol-4-yl)sulfonyl)piperidin-4-yl)amino)spiro[cyclopropane-1,5′-pyrrolo[2,3-d]pyrimidin]-6′(7′H)-one]
